“And” between values parts separate entries of the source, which are not always exact repeats. Identical values can stand only once. “Also recorded” adds a separate entry of the source.
Legend:
[1] = tested on: GSH peroxidase (GPx); assay: GPx activity in homogenates of treated worms; format: cell-based, Schistosoma mansoni; conditions: 10 μM AF
[2] = tested on: GSH:GSSG ratio; assay: GSH:GSSG ratio in treated worms; format: cell-based, Schistosoma mansoni; conditions: after 6 h of treatment with 10 μM AF
Experimental: (§1) AF was dissolved in DMSO and added to freshly perfused worms in DMEM to 10 μM. Control worms were treated with equal amounts of carrier. Worms were subsequently observed for unpairing, motility, and mortality, and were collected at the indicated time intervals for analysis. Worms were homogenized by sonication in PBS and homogenates were assayed for TrxR and GR activities as described above. […] Each assay was done in triplicate and each experiment was done three times.

[3] = Tolerability of AF dosage in mice; format: in vivo; conditions: 6 mg/kg twice daily for 9 d
Experimental: (§2) Mice (14-wk-old females; C57BL/6 in experiment 1, NIH-Swiss in experiment 2) infected with 60 S. mansoni cercariae were injected intraperitoneally with 6 mg/kg of AF twice daily for 9 d, beginning 7 wk post infection. Infected control mice were injected with equal amounts of carrier. Mice were perfused 1 wk after the final dose of AF and worm burdens were determined.

[4] = biological target: T1, Human TrxR (Homo sapiens, UniProt Q16881); conditions: read-out: IC50 Human TrxR, DTNB/Trx; cited from earlier work
T1 sequence (Q16881 1-499 isoform Q16881-5): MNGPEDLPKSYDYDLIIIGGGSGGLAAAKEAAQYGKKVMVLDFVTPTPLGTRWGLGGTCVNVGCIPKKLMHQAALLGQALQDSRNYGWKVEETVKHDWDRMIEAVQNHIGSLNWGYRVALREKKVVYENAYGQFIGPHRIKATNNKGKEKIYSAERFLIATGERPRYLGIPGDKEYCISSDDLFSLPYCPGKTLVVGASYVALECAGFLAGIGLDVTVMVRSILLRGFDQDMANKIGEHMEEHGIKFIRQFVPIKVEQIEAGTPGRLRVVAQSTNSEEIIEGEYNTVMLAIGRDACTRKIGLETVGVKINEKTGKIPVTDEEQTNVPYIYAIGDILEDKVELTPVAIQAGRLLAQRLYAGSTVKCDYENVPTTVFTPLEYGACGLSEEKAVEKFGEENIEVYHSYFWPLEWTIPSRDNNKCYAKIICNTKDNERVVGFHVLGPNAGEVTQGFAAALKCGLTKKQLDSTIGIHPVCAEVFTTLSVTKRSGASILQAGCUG

[5] = tested on: S. mansoni; assay: Inhibitor studies on infected mice (worm burden); format: in vivo, Schistosoma mansoni; conditions: for Total Worm Burden, Number of Worms, Mean ± SD / Total Worm Burden Reduction: 6 mg/kg twice daily for 9 d; for Total Worm Burden, Number of Worms, Mean ± SD: intraperitoneally; for Total Worm Burden Reduction: versus control, 6 mg/kg
Experimental: as §2

[6] = tested on: myeloma cell line SP2/0; assay: Cytotoxicity assay (sulforhodamine B); format: cell-based; conditions: for 5 d
Experimental: Cytotoxicity assays were performed using sulforhodamine B to determine cellular protein content as described. Briefly, myeloma cell line SP2/0 was cultured in 96-well microtiter plates containing 0.2 ml of RPMI-1640 per well at a cell density of 1,000 per well at 37 °C in 5% CO2. Cells were treated with drug concentrations (or drug carrier alone) and exposure times as indicated. After treatment, cells were fixed with 10% TCA at 4 °C for 1 h. Fixed cells were rinsed to remove fixative and then stained in 0.4% (w/v) sulforhodamine B (Sigma) in 1% acetic acid for 30 min. After washing with 1% acetic acid and dye extraction in 10 mM Tris (pH 10.5), plates were read at A564nm. The A564nm of drug-treated cells was compared to carrier-only-treated cells. The treatments were done in triplicate and the experiments repeated three times.

[7] = tested on: schistosomula; assay: Schistosomula survival after RNAi and/or drug treatment; format: cell-based, Schistosoma mansoni; conditions: AF at 2 μM; TGR dsRNA
Experimental: Cercariae were mechanically transformed to schistosomula by vortexing, and bodies were separated from tails by Percoll gradient centrifugation as described [13]. Immediately after transformation, TGR dsRNA or irrelevant dsRNA (each at 54 μg/ml) was added to ~500 schistosomula in 50 μl water followed by incubation at 37 °C for 30 min. After addition of 250 μl of RPMI-1640 medium, 300 U/ml penicillin, and 175 μg/ml streptomycin, parasites were incubated at 37 °C in 5% CO2 atmosphere for 4 d. Reduced O2 tension was obtained by filtering media and purging with 95% N2, 5% CO2 for 20 min before use. Parasites were cultured during the course of the experiment in the appropriate gaseous mix at 37 °C in a sealed modular incubator chamber (Billups-Rothenberg, http://www.brincubator.com) flushed with the same gaseous mix. On day 2 of the experiment, 50 μl of fresh media was added. Schistosomula were assessed daily for viability by microscopy. For each time point at least 1,500 parasites were scored as alive or dead in each experiment (three replicates of 500 each), and each experiment was repeated three times.
(B) Parasites were cultured in the presence of double-stranded TGR RNA (dashed lines) or of double-stranded irrelevant RNA (solid lines) in 20% O2 (♦) or 0% O2 (). […] (C) Combination of RNAi and drug treatments. Solid lines are irrelevant dsRNA treatments and dashed lines are dsTGR treatments; no additions (♦), 2 μM praziquantel () and 2 μM AF (▴). […] In each experiment for each time point at least 1,500 parasites were scored as alive or dead (three replicates of 500 parasites). The error bars represent the standard deviations of three independent experiments.

[8] = tested on: adult Schistosoma mansoni worms; assay: Inhibitor studies on cultured adult worms (unpairing, mortality); format: cell-based
Experimental: as §1, with “AF was dissolved in DMSO and added to freshly perfused worms in DMEM to 10 μM.” left out

[9] = tested on: schistosomula and juvenile liver stage parasites; assay: Survival of larval and juvenile parasites in culture with AF; format: cell-based, Schistosoma mansoni; conditions: AF at concentrations as low as 5 μM
Description: Percutaneous infection of outbred mice (NIH Swiss or Swiss-Webster) with S. mansoni cercariae (NMRI strain) obtained from infected Biomphalaria glabrata snails, perfusion of adult worms (6–7 wk) and juvenile worms (23 d) and preparation of schistosomula from cercariae were as described. This study was approved by the Institutional Animal Care and Use Committee of Illinois State University (08–2002; Department of Health and Human Services animal welfare assurance number A3762–01).
Figure 6 Survival of Schistosomula, Adult Worms, and Myeloma Cells in the Presence of Auranofin or Potassium Antimonyl Tartrate (A) Cultured schistosomula treated with 0 μM AF (dashed line); AF 0.5 μM (♦); 1 μM (*); 2 μM (x); 5 μM (▴); 10 μM. (B) Survival of adult Schistosoma mansoni worms at 24 h (dashed line), myeloma cells at 24 h; and myeloma cells at 5 d (♦) at given concentrations of AF. (C) As in (B) in the presence of given concentrations of PAT. Each treatment was done in triplicate and each experiment was done three times. Error bars show the standard deviation of the three replicate experiments.

[10] = biological target: T2, Human GR (Homo sapiens, UniProt P00390); conditions: read-out: IC50 Human GR, GSSG; cited from earlier work
T2 sequence (P00390 44-522): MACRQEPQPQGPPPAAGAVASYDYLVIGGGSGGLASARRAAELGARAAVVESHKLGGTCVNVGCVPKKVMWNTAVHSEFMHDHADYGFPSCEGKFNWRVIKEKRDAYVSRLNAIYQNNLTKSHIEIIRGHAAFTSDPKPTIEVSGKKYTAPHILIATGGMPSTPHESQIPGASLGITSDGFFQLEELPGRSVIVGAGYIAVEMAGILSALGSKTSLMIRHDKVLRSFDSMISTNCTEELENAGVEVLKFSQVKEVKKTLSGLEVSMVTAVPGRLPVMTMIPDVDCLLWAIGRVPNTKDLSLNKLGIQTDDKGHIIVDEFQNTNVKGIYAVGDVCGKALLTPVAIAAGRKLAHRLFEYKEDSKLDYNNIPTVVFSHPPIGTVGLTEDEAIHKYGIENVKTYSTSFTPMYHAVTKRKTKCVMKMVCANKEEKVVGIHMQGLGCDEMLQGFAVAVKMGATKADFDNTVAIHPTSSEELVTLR

Structure (SMILES): CC(=O)OC[C@H]1O[C@@H]([S-])[C@H](OC(C)=O)[C@@H](OC(C)=O)[C@@H]1OC(C)=O.CCP(CC)CC.[Au+] [AF, auranofin]
- GPx activity in worm homogenates [1]: no significant deviation from controls; also recorded: not inhibited
- Decrease of GSH:GSSG ratio [2]: 85%
- Tolerability in mice [3]: well tolerated
- IC50 [4]: 0.02 µM
- Total Worm Burden, Number of Worms, Mean ± SD ([5]; C57BL/6 mice): 12 ± 7.8
- Total Worm Burden Reduction ([5]; C57BL/6 mice, p < 0.015): 59% and 59^a %
- Total Worm Burden, Number of Worms, Mean ± SD ([5]; NIH-Swiss mice): 8.6 ± 1.7
- Total Worm Burden Reduction ([5]; NIH-Swiss mice, p < 0.001): 63% and 63^b %
- Worm burden reductions in infected mice ([5]; summary value of abstract): 60% and ~ 60%
- Concentration tolerated by mammalian cell line [6]: 100 µM
- Schistosomula survival after 1 d [7]: 93.7%
- Schistosomula survival after 2 d [7]: 66.1%
- Time to adult worm death ([8]; 5 μM AF): 24 h
- Mortality of adult worms after 6 h ([8]; 10 μM AF): 83%
- Mortality of adult worms after 9 h ([8]; 10 μM AF): 100%
- Time to unpairing of male and female worms ([8]; 10 μM AF): 1 h
- Concentration able to kill parasites rapidly in culture ([8]; physiological concentration, abstract): 5 µM
- Time to kill larval, skin stage and juvenile liver stage parasites [9]: less than 10 h
- IC50 [10]: 40 µM
